Experimental data taken from patent publication US8044053B2, “Sulfonamide substituted pyrazoline compounds, their preparation and use as CB1 modulators” (Laboratories del Dr. Esteve, S.A., priority 2006, dated 2011).
Where a name gives a salt, the structure may show the parent alone.

Biological target: CB1-receptor (UniProt P20272)
Test: In-vitro determination of affinity (binding) to CB1-receptors, radioligand [3H]-CP55940
Parameters: IC50; Ki; species or system human or rat
Details: Pharmacological Methods Part I
Method: I. In-Vitro Determination of Affinity to CB1/CB2-Receptors
The in-vitro determination of the affinity of the inventive substituted pyrazoline compounds to CB1/CB2-Rezeptors is carried out as described in the publication of Ruth A. Ross, Heather C. Brockie et al., “Agonist-inverse agonist characterisation at CB1 and CB2 cannabinoid receptors of L-759633, L759656 and AM630”, British Journal of Pharmacology, 126, 665-672, (1999), whereby the transfected human CB1 and CB2 receptors of Receptor Biology, Inc. are used. The radioligand used for both receptors is [^3H]-CP55940. The respective parts of the description is hereby incorporated by reference and forms part of the present disclosure.
Rat Cerebellum CB1 Binding
Binding affinity to CB1 receptor was evaluated according to a modification of the method described by Govaerts et al., Eur J Pharmac Sci 23, 233-243 (2004). The respective parts of the description is hereby incorporated by reference and forms part of the present disclosure.
Briefly, cerebellum from male wistar rats (250-300 g) were carefully dissected on ice and homogenates were prepared with Potter-Helveheim in a cold 50 mM Tris-HCl solution containing 5 mM MgCl2, 1 mM EDTA and 0.25 M sucrose, pH 7.4. The suspension was centrifuged at 1,000×g for 5 minutes. The supernatants were collected and centrifuged 50,000×g for 15 minutes. The resulting pellets were then resuspended in Tris-HCl buffer without sucrose, homogenised and incubated for 15 min at 37° C. in an orbital shaker bath and centrifuged again at 50,000×g for 15 min. Pellets were weighted, resuspended in Tris-HCl buffer without sucrose, homogenised with Ultraturrax at 13,500 rpm for 3×5 seconds and alicuoted in 0.9 ml volumes in Eppendorf tubes. Alicuotes were centrifuged at 20,800×g for 5 minutes, supernatants discarded and pellets were frozen at −80° C. until use. Total protein concentration was determined using the Bio-Rad Lowry method based kit. Competitive binding experiments were performed in presence of 1 nM [^3H]-CP 55,940 in siliconised glass tubes containing 100 μg protein/tube resuspended in 1 ml final volume of 50 mM Tris-HCl, 5 mM MgCl2, 1 mM EDTA, 0.5% (w/v) bovine serum albumin, pH 7.4. Compounds were present at various concentrations and the non specific binding was determined in the presence of 10 μM HU-210. After 1 hour incubation at 30° C., the suspension was rapidly filtered through 0.5% PEI pre-treated GF/B fiber filters on a 96-well harvester and washed 3 times with 3 ml ice-cold binding buffer without bovine serum albumin. Radioactivity on filters was measured with Wallac Winspectral 1414 counter by liquid scintillation in 6 ml Ecoscint H (National Diagnostics, U.K.). Assays were made in triplicates.
Binding data were analysed by non-linear regression with the software GraphPad Prism Version 3.03.
The binding of the pyrazoline compounds of general formulae I, Ia and Ib to CB1-receptors was determined according to the method described in the section Pharmacological Methods, Part I.

IC50	Ki	Structure (SMILES)
42.6 nM	17.9 nM	CCOc1ccc(C2CC(CNS(=O)(=O)c3cc(F)ccc3F)=NN2c2ccc(Cl)cc2Cl)cc1 (stereo not drawn) [Example 99, N-[1-(2,4-Dichloro-phenyl)-5-(4-ethoxy-phenyl)-4,5-dihydro-1H-pyrazol-3-ylmethyl]-2,5-difluoro-benzenesulfonamide]
40 nM	16.9 nM	O=S(=O)(NCC1=NN(c2ccc(Cl)cc2Cl)C(c2ccc(Cl)cc2)C1)c1ccccc1Br (stereo not drawn) [Example 136, 2-Bromo-N-[5-(4-chloro-phenyl)-1-(2,4-dichloro-phenyl)-4,5-dihydro-1H-pyrazol-3-ylmethyl]-benzenesulfonamide]
11 nM	5.1 nM	Cc1ccc(F)cc1S(=O)(=O)NCC1=NN(c2ccc(Cl)cc2Cl)[C@@H](c2ccc(Cl)cc2)[C@H]1C [Example 74, (4R,5R)-N-[5-(4-Chloro-phenyl)-1-(2,4-dichloro-phenyl)-4-methyl-4,5-dihydro-1H-pyrazol-3-ylmethyl]-5-fluoro-2-methyl-benzenesulfonamide]
5.5 nM	2.3 nM	Cc1ccc([N+](=O)[O-])cc1S(=O)(=O)NCC1=NN(c2ccc(Cl)cc2Cl)C(c2ccc(Cl)cc2)C1 (stereo not drawn) [Example 142, N-[5-(4-Chloro-phenyl)-1-(2,4-dichloro-phenyl)-4,5-dihydro-1H-pyrazol-3-ylmethyl]-2-methyl-5-nitro-benzenesulfonamide]
88.9 nM	38.3 nM	O=S(=O)(NCC1=NN(c2ccc(Cl)cc2Cl)[C@@H](c2ccc(Cl)cc2)C1)c1ccccc1 [Example 194, (R)-N-[5-(4-Chloro-phenyl)-1-(2,4-dichloro-phenyl)-4,5-dihydro-1H-pyrazol-3-ylmethyl]-benzenesulfonamide]
7.2 nM	3 nM	CCOc1ccc(C2CC(CNS(=O)(=O)c3cc(F)ccc3C)=NN2c2ccc(Cl)cc2Cl)cc1 (stereo not drawn) [Example 102, N-[1-(2,4-Dichloro-phenyl)-5-(4-ethoxy-phenyl)-4,5-dihydro-1H-pyrazol-3-ylmethyl]-5-fluoro-2-methyl-benzenesulfonamide]
17.9 nM	7.6 nM	CCOc1ccc(C2CC(CNS(=O)(=O)c3cccc(Cl)c3Cl)=NN2c2ccc(Cl)cc2Cl)cc1 (stereo not drawn) [Example 248, 2,3-Dichloro-N-[1-(2,4-dichloro-phenyl)-5-(4-ethoxy-phenyl)-4,5-dihydro-1H-pyrazol-3-ylmethyl]-benzenesulfonamide]
5.6 nM	2.4 nM	CCOc1ccc(C2CC(CNS(=O)(=O)c3ccccc3Br)=NN2c2ccc(Cl)cc2Cl)cc1 (stereo not drawn) [Example 249, 2-Bromo-N-[1-(2,4-dichloro-phenyl)-5-(4-ethoxy-phenyl)-4,5-dihydro-1H-pyrazol-3-ylmethyl]-benzenesulfonamide]
50.5 nM	21.4 nM	Cc1ccc(C)c(S(=O)(=O)NCC2=NN(c3ccc(Cl)cc3Cl)[C@@H](c3ccc(Cl)cc3)[C@H]2C)c1 (racemic) [Example 83, cis-(4RS,5RS)-N-[5-(4-Chloro-phenyl)-1-(2,4-dichloro-phenyl)-4-methyl-4,5-dihydro-1H-pyrazol-3-ylmethyl]-2,5-dimethyl-benzenesulfonamide]
52.7 nM	23.5 nM	COc1ccc(C2CC(CNS(=O)(=O)c3cccc(OC)c3)=NN2c2ccc(Cl)cc2Cl)cc1 (stereo not drawn) [Example 221, N-[1-(2,4-Dichloro-phenyl)-5-(4-methoxy-phenyl)-4,5-dihydro-1H-pyrazol-3-ylmethyl]-3-methoxy-benzenesulfonamide]
74 nM	33 nM	COc1ccc(C2CC(CNS(=O)(=O)c3cc(Cl)ccc3F)=NN2c2ccc(Cl)cc2Cl)cc1 (stereo not drawn) [Example 94, 5-Chloro-N-[1-(2,4-dichloro-phenyl)-5-(4-methoxy-phenyl)-4,5-dihydro-1-pyrazol-3-ylmethyl]-2-fluoro-benzenesulfonamide]
10.2 nM	4.4 nM	CCOc1ccc(C2CC(CNS(=O)(=O)c3cccc(C#N)c3)=NN2c2ccc(Cl)cc2Cl)cc1 (stereo not drawn) [Example 271, 3-Cyano-N-[1-(2,4-dichloro-phenyl)-5-(4-ethoxy-phenyl)-4,5-dihydro-1H-pyrazol-3-ylmethyl]-benzenesulfonamide]
42 nM	17.5 nM	Cc1ccc(C)c(S(=O)(=O)NCC2=NN(c3ccc(Cl)cc3Cl)C(c3ccc(Br)cc3)C2)c1 (stereo not drawn) [Example 280, N-[5-(4-Bromo-phenyl)-1-(2,4-dichloro-phenyl)-4,5-dihydro-1H-pyrazol-3-ylmethyl]-2,5-dimethyl-benzenesulfonamide]
65.5 nM	27.7 nM	CCOc1ccc(C2CC(CNS(=O)(=O)c3cc(C)c(Cl)cc3C)=NN2c2ccc(Cl)cc2Cl)cc1 (stereo not drawn) [Example 247, 4-Chloro-N-[1-(2,4-dichloro-phenyl)-5-(4-ethoxy-phenyl)-4,5-dihydro-1H-pyrazol-3-ylmethyl]-2,5-dimethyl-benzenesulfonamide]
90.1 nM	39.7 nM	COc1ccc(C2CC(CNS(=O)(=O)c3cccc(Cl)c3)=NN2c2ccc(Cl)cc2Cl)cc1 (stereo not drawn) [Example 225, 3-Chloro-N-[1-(2,4-dichloro-phenyl)-5-(4-methoxy-phenyl)-4,5-dihydro-1H-pyrazol-3-ylmethyl]-benzenesulfonamide]
91 nM	40.6 nM	Cc1cc(S(=O)(=O)NCC2=NN(c3ccc(Cl)cc3Cl)[C@@H](c3ccc(Cl)cc3)C2)c(C)cc1Cl [Example 67, (R)-4-Chloro-N-[5-(4-chloro-phenyl)-1-(2,4-dichloro-phenyl)-4,5-dihydro-1H-pyrazol-3-ylmethyl]-2,5-dimethyl-benzenesulfonamide]
13.4 nM	5.7 nM	CCOc1ccc(C2CC(CNS(=O)(=O)c3c(C)cc(C)cc3C)=NN2c2ccc(Cl)cc2Cl)cc1 (stereo not drawn) [Example 272, N-[1-(2,4-Dichloro-phenyl)-5-(4-ethoxy-phenyl)-4,5-dihydro-1H-pyrazol-3-ylmethyl]-2,4,6-trimethyl-benzenesulfonamide]
55 nM	23.2 nM	O=[N+]([O-])c1cccc(S(=O)(=O)NCC2=NN(c3ccc(Cl)cc3Cl)C(c3ccc(Cl)cc3)C2)c1 (stereo not drawn) [Example 144, N-[5-(4-Chloro-phenyl)-1-(2,4-dichloro-phenyl)-4,5-dihydro-1H-pyrazol-3-ylmethyl]-3-nitro-benzenesulfonamide]
43 nM	18.2 nM	Cc1ccc(F)cc1S(=O)(=O)NCC1=NN(c2ccc(Cl)cc2Cl)C(c2ccc(Br)cc2)C1 (stereo not drawn) [Example 277, N-[5-(4-Bromo-phenyl)-1-(2,4-dichloro-phenyl)-4,5-dihydro-1H-pyrazol-3-ylmethyl]-5-fluoro-2-methyl-benzenesulfonamide]
39.7 nM	16.6 nM	CCOc1ccc(C2CC(CNS(=O)(=O)c3cccc(Cl)c3F)=NN2c2ccc(Cl)cc2Cl)cc1 (stereo not drawn) [Example 250, 3-Chloro-N-[1-(2,4-dichloro-phenyl)-5-(4-ethoxy-phenyl)-4,5-dihydro-1H-pyrazol-3-ylmethyl]-2-fluoro-benzenesulfonamide]
88.2 nM	43.2 nM	O=S(=O)(NCC1=NN(c2ccc(Cl)cc2Cl)C(c2ccc(Cl)cc2)C1)c1cccnc1 (stereo not drawn) [Example 53, Pyridine-3-sulfonic acid [5-(4-chloro-phenyl)-1-(2,4-dichloro-phenyl)-4,5-dihydro-1H-pyrazol-3-ylmethyl]-amide hydrochloride]
30.8 nM	12.8 nM	CCOc1ccc(C2CC(CNS(=O)(=O)c3cc(Cl)ccc3F)=NN2c2ccc(Cl)cc2Cl)cc1 (stereo not drawn) [Example 100, 5-Chloro-N-[1-(2,4-dichloro-phenyl)-5-(4-ethoxy-phenyl)-4,5-dihydro-1H-pyrazol-3-ylmethyl]-2-fluoro-benzenesulfonamide]
16.5 nM	7 nM	O=S(=O)(NCC1=NN(c2ccc(Cl)cc2Cl)C(c2ccc(Cl)cc2)C1)c1cc(Cl)ccc1Cl (stereo not drawn) [Example 139, 2,5-Dichloro-N-[5-(4-chloro-phenyl)-1-(2,4-dichloro-phenyl)-4,5-dihydro-1H-pyrazol-3-ylmethyl]-benzenesulfonamide]
50.4 nM	21 nM	Cc1ccc(F)cc1S(=O)(=O)NCC1=NN(c2ccc(Cl)cc2Cl)[C@@H](c2ccc(Cl)cc2)C1 [Example 63, (R)-N-[5-(4-Chloro-phenyl)-1-(2,4-dichloro-phenyl)-4,5-dihydro-1H-pyrazol-3-ylmethyl]-5-fluoro-2-methyl-benzenesulfonamide]
